SMILES strings stand for the structures. Values joined by “and” are separate entries in the source; they are usually repeats but may differ in a detail not shown here. Equal entries are not always repeated.

In this assay the test system is L1210. The assay can be described thus: Tumor cell selectivity determined as maximal percent increase in life span (ILSmax) at LD10 dosage level in L1210 cells. In kind it is functional, Mus musculus.
Consider `CN(C)C(=O)CCS(=O)(=O)Nc1ccc(Nc2c3ccccc3nc3ccccc23)cc1`, for which the ILSmax came to 63%.

For `Cc1cc(NS(C)(=O)=O)ccc1Nc1c2ccccc2nc2c(N)cccc12`, the ILSmax worked out at 120%.

`COc1cc(NS(C)(=O)=O)ccc1Nc1c2ccccc2nc2cc([N+](=O)[O-])ccc12`: the ILSmax was 76%.

`CCc1ccccc1Nc1c2ccccc2nc2ccccc12` registered an ILSmax of 25%.

In the case of `O=S(=O)(CCl)Nc1ccc(Nc2c3ccccc3nc3ccccc23)cc1`, the ILSmax was found to be 55%.

The compound `COc1cc(NS(C)(=O)=O)ccc1Nc1c2ccccc2nc2ccccc12` [AMSACRINE] yielded an ILSmax of 111%.

As for `CN(c1ccc(Nc2c3ccccc3nc3ccccc23)cc1)S(C)(=O)=O`, the ILSmax stood at 65%.

On to `CC(=O)NCCS(=O)(=O)Nc1ccc(Nc2c3ccccc3nc3ccccc23)cc1`, for which the ILSmax is 105%.

With `NCCCCCCc1ccc(N=c2c3ccccc3[nH]c3ccccc23)cc1`, the ILSmax was determined as 25%.

`N#CC(C#N)=Cc1ccc(Nc2c3ccccc3nc3ccccc23)cc1`: the ILSmax was 65%.

Compound `COc1cc(N)ccc1N=c1c2ccccc2[nH]c2c(C)cccc12` registered an ILSmax of 120%.

In turn, `COc1cc(NS(C)(=O)=O)ccc1N=c1c2ccccc2[nH]c2ccc(C(N)=O)cc12` showed an ILSmax of 25%.

`COc1ccc2c(Nc3ccc(NS(C)(=O)=O)cc3)c3ccc([N+](=O)[O-])cc3nc2c1`: the ILSmax is on record as 60%.

For the compound `Fc1ccc(Nc2c3ccccc3nc3ccccc23)cc1`, the ILSmax is given as 25%.

As for `CS(=O)(=O)c1ccc(S(=O)(=O)Nc2ccc(Nc3c4ccccc4nc4ccccc34)cc2)cc1`, the ILSmax came to 128%.

`OC[C@@H]1O[C@H](Oc2ccc(Nc3c4ccccc4nc4ccccc34)cc2)[C@@H](O)[C@H](O)[C@H]1O`: the ILSmax was found to be 60%.

In the case of `Nc1cccc(Nc2c3ccccc3nc3ccccc23)c1`, the ILSmax was found to be 50%.

For `CS(=O)(=O)Nc1ccc(Nc2c3ccccc3nc3ccccc23)c(O)c1`, the ILSmax was determined as 85%.

The compound `CCCC(=O)N(c1ccc(Nc2c3ccccc3nc3cc(N)ccc23)cc1)S(C)(=O)=O` gave an ILSmax of 55%.

Compound `CCS(=O)(=O)Nc1ccc(Nc2c3ccccc3nc3cc(C)ccc23)cc1` had an ILSmax of 84%.

As for `Cc1ccc2c(Nc3ccc(NS(C)(=O)=O)cc3)c3ccc(N)cc3nc2c1C`, the ILSmax came out at 110%.

Compound `CS(=O)(=O)Nc1ccc(Nc2c3ccccc3nc3ccccc23)cc1Cl` yielded an ILSmax of 25%.

For the compound `Cc1ccc2c(Nc3ccc(NS(C)(=O)=O)cc3)c3ccccc3nc2c1C`, the ILSmax is 55%.

`COc1cc(NS(C)(=O)=O)ccc1Nc1c2ccccc2nc2cc(I)ccc12`: the ILSmax was 74%.

`Cc1cc(NS(C)(=O)=O)ccc1Nc1c2ccccc2nc2c(C(N)=O)cccc12` gave an ILSmax of 68%.

The compound `O=C(O)Cc1ccccc1Nc1c2ccccc2nc2ccccc12` yielded an ILSmax of 25%.

Take `NCC(=O)NCCS(=O)(=O)Nc1ccc(Nc2c3ccccc3nc3cc([N+](=O)[O-])ccc23)cc1`: the ILSmax worked out at 170%.

Regarding `CC(=O)Nc1ccc2c(Nc3ccc(N(C(=O)C(C)C)S(C)(=O)=O)cc3)c3ccccc3nc2c1`, the ILSmax amounted to 140%.

Compound `Cc1cc(N)ccc1N=c1c2ccccc2[nH]c2ccccc12` displayed an ILSmax of 76%.

Compound `O=C(Nc1ccc(N=c2c3ccccc3[nH]c3ccccc23)cc1)Nc1ccc(C(=O)O)cc1` gave an ILSmax of 85%.

In turn, `COc1cccc2c(Nc3ccc(NS(C)(=O)=O)cc3)c3ccc(I)cc3nc12` had an ILSmax of 80%.

With `CC(=O)Nc1ccc2c(Nc3ccc(NS(C)(=O)=O)cc3)c3cccc(C)c3nc2c1C`, the ILSmax is listed as 60%.

In turn, `NCCS(=O)(=O)Nc1ccc(Nc2c3ccccc3nc3ccccc23)cc1` showed an ILSmax of 25%.

The compound `Nc1ccc(Nc2c3ccccc3nc3ccccc23)cc1` came in with an ILSmax of 25%.

Regarding `CS(=O)(=O)Nc1ccc(Nc2c3cc(N)ccc3nc3ccc(N)cc23)cc1`, the ILSmax is listed as 35%.

Take `CCCOc1cccc2c(Nc3ccc(NS(C)(=O)=O)cc3)c3ccccc3nc12`: the ILSmax stood at 100%.

With `CCOc1cc(NS(C)(=O)=O)ccc1Nc1c2ccccc2nc2ccccc12`, the ILSmax stood at 75%.

Take `COc1ccc2[nH]c3ccccc3c(=Nc3ccc(NS(C)(=O)=O)cc3OC)c2c1`: the ILSmax stood at 35%.

`Cc1c([N+](=O)[O-])ccc2c(Nc3ccc(NS(C)(=O)=O)cc3)c3ccccc3nc12` gave an ILSmax of 70%.

Take `CCCCS(=O)(=O)Nc1ccc(Nc2c3ccccc3nc3cc(NC(C)=O)ccc23)cc1`: the ILSmax worked out at 83%.

Consider `CCCCCCS(=O)(=O)Nc1ccc(Nc2c3ccccc3nc3ccccc23)c(OC)c1`, for which the ILSmax turned out to be 66%.

Compound `c1ccc2c(Nc3ccc(N4CCNCC4)cc3)c3ccccc3nc2c1` showed an ILSmax of 25%.

In the case of `N=C(N)NCCCS(=O)(=O)Nc1ccc(Nc2c3ccccc3nc3cc([N+](=O)[O-])ccc23)cc1`, the ILSmax is 200%.

The compound `COc1cc(NS(C)(=O)=O)ccc1Nc1c2ccccc2nc2cc(N)ccc12` displayed an ILSmax of 102%.

Consider `COc1cc(N)ccc1Nc1c2ccccc2nc2ccccc12`, for which the ILSmax is 25% and 66%.

For `CS(=O)(=O)Nc1ccc(Nc2c3ccccc3nc3ccc(N)cc23)cc1`, the ILSmax is 50%.

`CNc1ccc2c(Nc3ccc(C(=O)O)cc3)c3ccccc3nc2c1` yielded an ILSmax of 25%.

For the compound `CCCCOc1cccc2c(Nc3ccc(NS(C)(=O)=O)cc3OC)c3ccccc3nc12`, the ILSmax was 80%.

As for `Cc1cc(NS(C)(=O)=O)ccc1Nc1c2ccc([N+](=O)[O-])cc2nc2c(C)c(C)ccc12`, the ILSmax is 60%.

In turn, `CN1CCN(c2ccc(Nc3c4ccccc4nc4cc([N+](=O)[O-])ccc34)cc2)CC1` yielded an ILSmax of 25%.

For the compound `Cc1cccc2c(Nc3ccc(NS(=O)(=O)CCCCN)cc3)c3cccc(C)c3nc12`, the ILSmax turned out to be 72%.

`COc1cc(NS(C)(=O)=O)ccc1Nc1c2ccccc2nc2cc(Br)c(N)cc12`: the ILSmax amounted to 99%.

Turning to `CN(C)Cc1ccc(Nc2c3ccccc3nc3ccccc23)cc1`, the ILSmax is 25%.

Consider `O=C(O)CCCCCc1ccc(NC(=O)Nc2ccc(Nc3c4ccccc4nc4ccccc34)cc2)cc1`, for which the ILSmax is given as 60%.

`NC(=O)CCCCc1ccc(Nc2c3ccccc3nc3ccccc23)cc1`: the ILSmax came to 82%.

`N=C(N)NCCCS(=O)(=O)Nc1ccc(Nc2c3ccc(N)cc3nc3ccc(N)cc23)cc1` gave an ILSmax of 129%.

`O=C(O)CCCCc1ccc(NC(=O)Nc2ccc(N=c3c4ccccc4[nH]c4ccccc34)cc2)cc1` showed an ILSmax of 80%.

In the case of `COc1ccc2nc3cc(Cl)ccc3c(Nc3ccc(NS(C)(=O)=O)cc3OC)c2c1`, the ILSmax was found to be 25%.

`CCC(CC)C(=O)Nc1ccc(Nc2c3ccccc3nc3ccccc23)cc1` came in with an ILSmax of 90%.

In the case of `COc1cc(NS(C)(=O)=O)ccc1Nc1c2ccccc2nc2c(C(=O)NCCO)cccc12`, the ILSmax was 100%.

Consider `COc1cc(NS(C)(=O)=O)ccc1Nc1c2ccc(C)cc2nc2cc([N+](=O)[O-])ccc12`, for which the ILSmax is recorded as 92%.

Take `NCc1ccc(Nc2c3ccccc3nc3ccccc23)cc1`: the ILSmax was found to be 25%.

`CN(c1ccc(N=c2c3ccccc3[nH]c3cc(N)ccc23)cc1)S(C)(=O)=O`: the ILSmax is on record as 100%.

Consider `Cc1ccc(Nc2c3ccccc3nc3ccccc23)cc1`, for which the ILSmax was 90%.

`CN(C)c1ccc(NC(=O)Nc2ccc(Nc3c4ccccc4nc4ccccc34)cc2)cc1` returned an ILSmax of 170%.

In turn, `CS(=O)(=O)Nc1ccc(Nc2c3ccccc3nc3ccccc23)c(N)c1` gave an ILSmax of 105%.

For `COc1cc(NS(C)(=O)=O)ccc1Nc1c2ccccc2nc2c(CCC(N)=O)cccc12`, the ILSmax is 105%.

Compound `COc1cc(NS(C)(=O)=O)ccc1Nc1c2ccccc2nc2cc(C(C)C)ccc12` returned an ILSmax of 40%.

As for `COc1ccc(Nc2c3ccccc3nc3ccccc23)c(NS(C)(=O)=O)c1`, the ILSmax is listed as 50%.

Compound `CC(C)(C)c1ccccc1Nc1c2ccccc2nc2ccccc12` showed an ILSmax of 25%.

On to `COc1cc(NS(C)(=O)=O)ccc1Nc1c2ccc([N+](=O)[O-])cc2nc2c(C)cccc12`, for which the ILSmax is 72% and 113%.

For `O=C(O)CCCCc1ccc(Nc2c3ccccc3nc3ccccc23)cc1`, the ILSmax was 187%.

As for `Cc1cccc2nc3ccccc3c(Nc3ccc(NS(C)(=O)=O)cc3)c12`, the ILSmax worked out at 25%.

On to `COc1cc(NS(C)(=O)=O)ccc1Nc1c2ccccc2nc2c(OCCO)cccc12`, for which the ILSmax is on record as 105%.

Turning to `COc1cc(NS(C)(=O)=O)ccc1N=c1c2ccccc2[nH]c2c(CN(C)C)cccc12`, the ILSmax came to 72%.

`CC(=O)Nc1ccc2c(Nc3ccc(NS(C)(=O)=O)cc3)c3ccc(Cl)cc3nc2c1` yielded an ILSmax of 60%.

`COc1cc(NS(=O)(=O)CCCCN)ccc1Nc1c2ccccc2nc2c(C(N)=O)cccc12`: the ILSmax is 25%.

For the compound `COc1ccc2nc3cc([N+](=O)[O-])ccc3c(Nc3ccc(NS(C)(=O)=O)cc3)c2c1`, the ILSmax is 55%.

Compound `NCCCCCS(=O)(=O)Nc1ccc(Nc2c3ccccc3nc3ccccc23)cc1` returned an ILSmax of 25%.

`CCc1ccc2c(Nc3ccc(CC(=O)O)cc3)c3ccccc3nc2c1` returned an ILSmax of 200%.

Take `COc1cc(NS(C)(=O)=O)ccc1Nc1c2cccc(C)c2nc2c(C)c(N)ccc12`: the ILSmax is listed as 80%.

In turn, `CS(=O)(=O)Nc1ccccc1Nc1c2ccccc2nc2ccccc12` gave an ILSmax of 25%.

On to `Cc1cccc2c(Nc3ccc(NS(C)(=O)=O)cc3)c3ccc([N+](=O)[O-])cc3nc12`, for which the ILSmax was 120% and 130%.

Compound `COc1cc(NS(C)(=O)=O)ccc1Nc1c2ccccc2nc2cc(C(F)(F)F)c(N)cc12` showed an ILSmax of 90%.

Regarding `CC(=O)Nc1ccccc1Nc1c2ccccc2nc2ccccc12`, the ILSmax came to 25%.

Compound `Nc1ccc2c(Nc3ccc(C(=O)O)cc3)c3ccccc3nc2c1` registered an ILSmax of 25%.

The compound `COc1cc(NS(C)(=O)=O)ccc1Nc1c2ccc(C)cc2nc2c(OC)cccc12` registered an ILSmax of 72%.

For the compound `Fc1ccccc1Nc1c2ccccc2nc2ccccc12`, the ILSmax is recorded as 25%.

With `COc1ccc2c(Nc3ccc(NS(C)(=O)=O)cc3)c3ccc(OC)cc3nc2c1`, the ILSmax turned out to be 56%.

Source of the values: ChEMBL document CHEMBL1122107, “Structure-antitumor activity relationships of 9-anilinoacridines using pattern recognition” (1982).
